Paper PMC11851430, “Workflow for E3 Ligase Ligand Validation for PROTAC Development” (ACS Chemical Biology, 2025)

What was measured:
STK3A = molecular target: T1, STK3A (Homo sapiens, UniProt Q13188); assay: DSF assay; type: binding; settings: 20 µM compound
T1 construct: purchased in-house DSF panel (SGC-style construct names; the trailing A/B is a construct suffix)
T1 sequence (Q13188 16-313): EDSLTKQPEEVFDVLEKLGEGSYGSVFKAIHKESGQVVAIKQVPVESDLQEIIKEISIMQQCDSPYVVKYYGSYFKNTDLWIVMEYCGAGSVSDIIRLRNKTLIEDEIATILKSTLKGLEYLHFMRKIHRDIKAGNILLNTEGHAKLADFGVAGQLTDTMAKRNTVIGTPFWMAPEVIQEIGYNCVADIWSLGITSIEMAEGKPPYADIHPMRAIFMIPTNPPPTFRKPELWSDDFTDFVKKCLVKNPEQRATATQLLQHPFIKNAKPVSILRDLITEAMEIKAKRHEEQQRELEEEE

DYRK2A = molecular target: T2, DYRK2A (Homo sapiens, UniProt Q92630); assay: DSF assay; type: binding; settings: 20 µM compound
T2 construct: purchased in-house DSF panel (SGC-style construct names; the trailing A/B is a construct suffix)
T2 sequence (Q92630 146-552): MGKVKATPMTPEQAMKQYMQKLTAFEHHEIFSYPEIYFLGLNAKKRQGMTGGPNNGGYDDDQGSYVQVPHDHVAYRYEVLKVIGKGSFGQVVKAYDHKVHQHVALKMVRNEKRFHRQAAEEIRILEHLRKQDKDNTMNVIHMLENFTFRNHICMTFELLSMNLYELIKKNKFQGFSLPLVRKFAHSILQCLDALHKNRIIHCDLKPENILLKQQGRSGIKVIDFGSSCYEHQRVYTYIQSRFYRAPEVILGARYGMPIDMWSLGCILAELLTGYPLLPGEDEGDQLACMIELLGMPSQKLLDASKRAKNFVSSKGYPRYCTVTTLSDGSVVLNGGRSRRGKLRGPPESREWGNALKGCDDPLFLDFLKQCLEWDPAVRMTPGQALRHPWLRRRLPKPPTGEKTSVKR

CDK2A = molecular target: T3, CDK2A (Homo sapiens, UniProt P24941); assay: DSF assay; type: binding; settings: 20 µM compound
T3 construct: purchased in-house DSF panel (SGC-style construct names; the trailing A/B is a construct suffix)

[1] = molecular target: T4, kinase protein levels in MCF-7 cells (Homo sapiens, UniProt A0A0B4J2F0); assay: TMT-labeled quantitative proteomics; type: cell-based; settings: protein PIGBOS1, MCF7, 1 µM
T4 construct: endogenous in cells; host or cells: MCF-7
T4 sequence (A0A0B4J2F0 1-54): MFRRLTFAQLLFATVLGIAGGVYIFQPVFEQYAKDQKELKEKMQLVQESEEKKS

| Compound | ΔTm at 20 µM (STK3A) [°C] | ΔTm at 20 µM (DYRK2A) [°C] | ΔTm at 20 µM (CDK2A) [°C] | P.Value (compound/DMSO) ([1]; set1.1) | log2FC (compound/DMSO) ([1]; set1.1) | other results |
| --- | --- | --- | --- | --- | --- | --- |
| CCOC(=O)c1cc(Nc2cc(C3CC3)[nH]n2)nc(Nc2ccc(CC#N)cc2)n1 [compound 5] | 9.87 | 7.58 | 12.5 |  |  |  |
| CC(=O)N[C@H](C(=O)N1C[C@H](O)C[C@H]1C(=O)NCc1ccc(-c2scnc2C)cc1OCCOCCOCCOCCNC(=O)c1cc(Nc2cc(C3CC3)[nH]n2)nc(Nc2ccc(CC#N)cc2)n1)C(C)(C)C [5-b] |  |  |  |  |  | P.Value (compound/DMSO) ([1]; set2): 0.8938; log2FC (compound/DMSO) ([1]; set2): 0.0131 |
| Cc1ncsc1-c1ccc(CNC(=O)[C@@H]2C[C@@H](O)CN2C(=O)[C@@H](NC(=O)CCOCCOCCOCCN2CCN(c3cc(Nc4cc(C5CC5)[nH]n4)nc(Nc4ccc(CC#N)cc4)n3)CC2)C(C)(C)C)cc1 [4-a] |  |  |  | 0.3761 | 0.1046 |  |
| CC(C)(C)OC(=O)NCCOCCOCCOCCOCCC(=O)N1CCN(c2cc(Nc3cc(C4CC4)[nH]n3)nc(Nc3ccc(CC#N)cc3)n2)CC1 [4-L] | 8.18 | 7.18 | 7.79 |  |  |  |
| Cc1ncsc1-c1ccc(CNC(=O)[C@@H]2C[C@@H](O)CN2C(=O)[C@@H](NC(=O)CCOCCOCCNC(=O)c2cc(Nc3cc(C4CC4)[nH]n3)nc(Nc3ccc(CC#N)cc3)n2)C(C)(C)C)cc1 [5-a] |  |  |  | 0.533 | 0.05527 |  |
| Cc1ncsc1-c1ccc(CNC(=O)[C@@H]2C[C@@H](O)CN2C(=O)[C@@H](NC(=O)CCOCCOCCOCCOCCN2CCN(c3ccc(Nc4ncc(Cl)c(Nc5ccccc5C(N)=O)n4)cc3)CC2)C(C)(C)C)cc1 [6-b] |  |  |  | 0.6062 | -0.04609 |  |
| CC(=O)N[C@H](C(=O)N1C[C@H](O)C[C@H]1C(=O)NCc1ccc(-c2scnc2C)cc1OCCOCCOCCOCCOCCC(=O)N1CCN(c2ccc(Nc3ncc(Cl)c(Nc4ccccc4C(N)=O)n3)cc2)CC1)C(C)(C)C [6-e] |  |  |  |  |  | P.Value (compound/DMSO) ([1]; set2): 0.4063; log2FC (compound/DMSO) ([1]; set2): 0.08613 |
| CC(C)(C)OC(=O)NCCCOCCOCCOCCCNC(=O)c1cc(Nc2cc(C3CC3)[nH]n2)nc(Nc2ccc(CC#N)cc2)n1 [5-L] | 8.81 | 7.69 | 7.86 |  |  |  |
